Data on 2 molecules can be found in US20240261288A1, “COMBINATION OF A 3-(IMIDAZOL-4-YL)-4-(AMINO)-BENZENES[…] INHIBITOR WITH AN EGFR INHIBITOR AND/OR MEK INHIBITOR FOR USE IN THE TREATMENT OF LUNG CANCER” (lkena Oncology, Inc., priority 2021, published 2024).

For experiment [1], the system named is A2058 cells (BRAF mutant). As to the kind of experiment: Apoptosis induction, caspase-3/7 activation (Incucyte live-cell imaging). The class given is cell-based. Particulars: T-A-32 in combination with trametinib, compared with either single agent treatment alone. The text has this: (§1) This study determined the ability of T-A-32 to enhance apoptosis in combination with osimertinib and trametinib in epidermal growth factor receptor (EGFR) mutant cell lines, and in combination with trametinib in Kirsten rat sarcoma viral oncogene (KRAS) or v raf murine sarcoma viral oncogene homolog B (BRAF) mutant cancer cell lines.
(§2) Three EGFR mutant cell lines (HCC4006, HCC827, and NCI-H1975), 5 KRAS mutant cell lines (A549, HCT116, Capan-2, Calu-1, and LoVo), and 1 BRAF mutant cell line (A2058) from multiple cancer indications were tested. The EGFR mutant cell lines were treated with single agent T-A-32, osimertinib (an EGFR inhibitor), or trametinib (a mitogen-activated protein kinase kinase [MEK] inhibitor); a dual combination of osimertinib and trametinib; or a triple combination of T-A-32, osimertinib, and trametinib in a 96-well plate format. The KRAS and BRAF mutant cell lines were treated with single agent T-A-32 or trametinib, or a dual combination of T-A-32 and trametinib in a 96-well plate format. Apoptosis induction was assessed by monitoring the activation of caspase-3/7 using a probe that generates bright green fluorescence upon DEVD peptide cleavage by activated caspase-3/7 as an early indicator of apoptosis every 2 hours for approximately 96 hours.
(§3) All cell lines were cultured in the recommended medium supplemented with 10% fetal bovine serum (FBS) at 37° C. in a humidified atmosphere containing 5% CO2 until they were at least 80% confluent as follows: • HCC4006, HCC827, and NCI-H1975 cells in Roswell Park Memorial Institute 1640+10% FBS • A2058 cells in Dulbecco's Modified Eagle Medium+10% FBS • HCT-116, Capan-2, and Calu-1 cells in McCoy's 5A+10% FBS • LoVo and A549 cells in F 12K+10% FBS
(§4) Cells were trypsinized, counted by an automated cell counter, and added to all wells of a 96-well plate at 3000 cells/well in 100 μL of the appropriate medium (1 plate for each cell line). The next day, compounds were diluted in DMSO to 1000× concentration. CELLEVENT Caspase-3/7 Green READYPROBE Reagent was prepared as per manufacturer's instructions by adding 1 drop of READYPROBE reagent into 1 mL of the appropriate medium. Compounds were diluted in the READYPROBE/medium mixture to 3× concentration and 50 μL were added to the cells. The plates were subsequently scanned every 2 hours using an Incucyte S3 Live-Cell Analysis System (Sartorius) for a total of 72 to 136 hours depending on the cell line. Plates were maintained at 37° C. in a humidified atmosphere containing 5% CO2 over the course of experiment.

In experiment [2] the test system is Calu 1 cells (KRAS mutant). The description is as above. The class given is cell-based. Particulars: T-A-32 in combination with trametinib, compared with either single agent treatment alone.
Description: as §1, §2, §3, §4

In experiment [3] the test system is Capan 2 cells (KRAS mutant). The description is as above. Particulars: T-A-32 in combination with trametinib, compared with either single agent treatment alone. Format: cell-based.
Description: as §1, §2, §3, §4

Experiment [4] deals with HCC4006 cells (EGFR mutant NSCLC). The description is as above. The class given is cell-based. Particulars: triple combination of T-A-32, osimertinib, and trametinib, compared with the 3 single agent treatments and the dual combination of osimertinib and trametinib.
Description: as §1, §2, §3, §4

In experiment [5] the test system is HCC827 cells (EGFR mutant NSCLC). The description is as above. Format: cell-based. Particulars: triple combination of T-A-32, osimertinib, and trametinib, compared with the 3 single agent treatments and the dual combination of osimertinib and trametinib.
Description: as §1, §2, §3, §4

In the next experiment the test system is A549 cells (KRAS mutant). The description is as above. The class given is cell-based, human. Particulars: T-A-32 in combination with trametinib, compared with either single agent treatment alone.
Description: as §1, §2, §3, §4

Experiment [6] concerns HCT-116 cells (KRAS mutant). The description is as above. Format: cell-based, human. Particulars: T-A-32 in combination with trametinib, compared with either single agent treatment alone.
Description: as §1, §2, §3, §4

For another experiment, the system named is LoVo cells (KRAS mutant). The description is as above. The class given is cell-based, human. Particulars: T-A-32 in combination with trametinib, compared with either single agent treatment alone.
Description: as §1, §2, §3, §4

For experiment [7], the system named is NCI-H1975 cells (EGFR mutant NSCLC). Described as above. Format: cell-based, human. Particulars: triple combination of T-A-32, osimertinib, and trametinib, compared with the 3 single agent treatments and the dual combination of osimertinib and trametinib.
Description: as §1, §2, §3, §4

For experiment [8], the system named is H1975 human non-small cell lung xenografts. As to the kind of experiment: H1975 EGFR mutant lung cancer xenograft mouse model, tumor growth. Format: in vivo, female Nu/Nu mice. Particulars: for TGI (tumor growth inhibition): Day 18, vs vehicle control, p<0.001. As to the method:
This study determined the in vivo antitumor activity of T-A-32 administered in combination with osimertinib, an EGFR inhibitor and trametinib, a MEK inhibitor. This combination was tested in immunodeficient nude mice (Nu/Nu) bearing H1975 human non-small cell lung xenografts. H1975 was chosen as a xenograft model because H1975 harbors EGFR T790M/[…]L858R mutations. T970M is well known point mutation for osimertinib resistance and L858R is also known EGFR activation mutation.
Six- to 9-week-old female Nu/Nu mice were inoculated SC with 2×10^6 H1975 human non-small cell lung tumor cells in the right flank. Tumor growth was monitored twice per week using vernier calipers and the mean tumor volume (MTV) was calculated. When the MTV reached approximately 177 mm^3, animals were randomized into treatment groups (n=10/group) and dosed orally (PO) with either vehicle control (5% DMSO+95% PEG 400 (Vehicle 1)+0.5% hydroxypropyl methyl cellulose and 0.2% Tween-80 (Vehicle 2)+1% Tween 80 (Vehicle 3)) or T-A-32 at 75 mg/kg, osimertinib at 2.5 mg/kg, or trametinib at 1 mg/kg QD for 18 days.
Treatments started on Day 0, tumor size and body weight were measured twice per week, and the study was terminated when the vehicle control tumors reached a mean of approximately 1600 mm^3. Percent TGI was calculated on Day 18 when the control MTV reached the maximum allowable tumor volume. The mean maximum body weight change was determined for each group.

Experiment [9] has as its system HCT-116 human colorectal carcinoma xenografts. As to the kind of experiment: HCT116 KRAS G13D mutant colorectal carcinoma xenograft mouse model, tumor growth. Format: in vivo, female Nu/Nu mice. Particulars: T-A-32 PO 75 mg/kg QD in combination with trametinib 0.5 mg/kg; Day 14; vs vehicle control; p<0.0001. As to the method: This study determined the in vivo antitumor activity of T-A-32 administered in combination with trametinib, a MEK inhibitor. This combination was tested in immunodeficient nude mice (Nu/Nu) bearing HCT-116 human colorectal carcinoma xenografts. HCT116 was chosen as a xenograft model because HCT116 harbors a the KRAS G13D mutation.
(§5) Six- to eight-week-old female Nu/Nu mice were inoculated subcutaneously with 1×10^6 HCT116 human colorectal carcinoma tumor cells in the right flank. Tumor growth was monitored twice per week using vernier calipers and the mean tumor volume (MTV) was calculated. When the MTV reached approximately 150-200 mm^3, approximately ten (10) days after cell inoculation, animals were randomized into treatment groups (n=10/group) and dosed orally (PO) with either vehicle control (5% DMSO+95% PEG 400 (Vehicle 1)+0.5% hydroxypropyl methyl cellulose and 0.2% Tween-80 (Vehicle 2)) or T-A-32 at 75 mg/kg, or trametinib at 0.5 mg/kg once per day (PO) for fourteen (14) days.
Tumor size and body weight were measured twice, and the study was terminated when the vehicle control tumors reached a mean of approximately 2000 mm^3. Percent TGI was calculated on Day 14 when the control MTV reached the maximum allowable tumor volume. The mean maximum body weight change was determined for each group.

Experiment [10] concerns A549 human lung cancer xenografts. As to the kind of experiment: A549 KRAS G12S mutant lung cancer xenograft mouse model, tumor growth. The class given is in vivo, female Nu/Nu mice. Particulars: T-A-32 PO 75 mg/kg QD in combination with trametinib 1.0 mg/kg; Day 25; vs vehicle control; p<0.0001. As to the method: This study determined the in vivo antitumor activity of T-A-32 administered in combination with trametinib, a MEK inhibitor. This combination was tested in immunodeficient nude mice (Nu/Nu) bearing A549 human lung cancer xenografts. A549 was chosen as a xenograft model because A549 cells harbor the KRAS G12S mutation.
as §5, with “with 5×10^6 A549” for “with 1×10^6 HCT116”, “human lung cancer” for “human colorectal carcinoma tumor”, “approximately eight (8)” for “approximately ten (10)”, “groups (n=8/group)” for “groups (n=10/group)”, “at 1.0” for “at 0.5”, “for twenty-five (25)” for “for fourteen (14)”
Tumor size and body weight were measured twice per week, and all treatments ended on day 25. Percent TGI was calculated on Day 25 when the control MTV reached the maximum allowable tumor volume. The mean maximum body weight change was determined for each group.

Experiment [11] relates to LoVo human colorectal adenocarcinoma xenografts. As to the kind of experiment: LoVo KRAS G12D mutant colorectal adenocarcinoma xenograft mouse model, tumor growth. The class given is in vivo, female Nu/Nu mice. Particulars: T-A-32 PO 75 mg/kg QD in combination with trametinib 1.0 mg/kg; Day 28; vs vehicle control; p<0.0001. As to the method: This study determined the in vivo antitumor activity of T-A-32 administered in combination with trametinib, a MEK inhibitor. This combination was tested in immunodeficient nude mice (Nu/Nu) bearing LoVo human colorectal adenocarcinoma xenografts. LoVo was chosen as a xenograft model because LoVo cells harbor the KRAS G12D mutation.
as §5, with “with 5×10^6 LoVo” for “with 1×10^6 HCT116”, “colorectal adenocarcinoma” for “colorectal carcinoma tumor”, “approximately eight (8)” for “approximately ten (10)”, “at 1.0” for “at 0.5”, “for twenty-eight (28)” for “for fourteen (14)”
Tumor size and body weight were measured twice per week, and all treatments ended on day 28. Percent TGI was calculated on Day 28 when the control MTV reached the maximum allowable tumor volume. The mean maximum body weight change was determined for each group.

Molecules are shown by their SMILES.

In the case of `CNS(=O)(=O)c1ccc(NCc2ccc(C(F)(F)F)cc2)c(-c2cn(C)cn2)c1` [T-A-32, N-methyl-3-(1-methyl-1H-imidazol-4-yl)-4-((4-(trifluoromethyl)benzyl)amino)benzenesulfonamide], the “apoptosis (caspase-3/7 activation)” value (in experiment [1]; in [2]; in experiment [3]; in experiment [4]; in experiment [5]; with A549 cells (KRAS mutant)) was “enhanced apoptosis” each time. In addition, the “apoptosis (caspase-3/7 activation)” value (in [6]; in the experiment with LoVo cells (KRAS mutant); in [7]) was “enhanced apoptosis” each time. Further, the “TGI (tumor growth inhibition)” value in [8] (T-A-32 PO 75 mg/kg QD in combination with osimertinib (2.5 mg/kg)) is given as 88%; in [8] (T-A-32 in combination with both trametinib and osimertinib, PO QD), 99%; in [9], 78%; in experiment [10], 83%; in [11], 75%. Besides, the tumor regression result in [8] (triple combination of T-A-32, osimertinib, and trametinib, H1975 xenograft) is on record as “complete regressions”.

With `CC(=O)Nc1cccc(-n2c(=O)n(C3CC3)c(=O)c3c(Nc4ccc(I)cc4F)n(C)c(=O)c(C)c32)c1` [trametinib, reference compound], the “TGI (tumor growth inhibition)” value in experiment [8] (trametinib 1 mg/kg in combination with osimertinib 2.5 mg/kg, PO QD) was found to be 71%.
